Numbered stars: 1 amine (or outer) side, 2 acyl side, 3 side chain; on linkers, the order of the positions; unused ones are H or OH. Bridge positions count the residues as written; N and C are the ends. Square brackets hold non-standard residues; d marks the D form. Peptide text beside a SMILES is read from it. * marks the point of attachment. Bip = N[C@@H](Cc1ccc(-c2ccccc2)cc1)C(=O)O; Phe(3-Me) = Cc1cccc(C[C@H](N)C(=O)O)c1; X6 = O=C(Cc1ccc(CN[*:1])cc1)[*:2]; 4Pal = N[C@@H](Cc1ccncc1)C(=O)O; Cha = N[C@@H](CC1CCCCC1)C(=O)O; Cit = NC(=O)NCCC[C@H](N)C(=O)O; Carboxymethyl = O=C(O)C*; Orn = NCCC[C@H](N)C(=O)O; Aun = NCCCCCCCCCCC(=O)O; Dab = NCC[C@H](N)C(=O)O; Dap = NC[C@H](N)C(=O)O; AEEA = NCCOCCOCC(=O)O; Ac3c = NC1(C(=O)O)CC1
Target: T1, PD-1/PD-L1 interaction (PE-labeled human PD-L1-Ig binding to Jurkat cell line over-expressing human PD-1) (Homo sapiens, UniProt Q15116)
T1 construct: expressed in transfected cells; host or cells: Jurkat
Experiment: Jurkat-PD-1 Cell Binding High-Content Screening Assay (CBA)
Assay type: cell-based
Settings: Jurkat cell line over-expressing human PD-1; PE-labeled PD-L1-Ig 20 nM final; read-out: Jurkat hPD1-PDL1 IC50
Procedure, shortened: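 Binding of fluorescent PD-L1-Ig (phycoerythrin on Ig tag, 20 nM final, 1 h) measured by high-content imaging of fixed, Hoechst-counterstained Jurkat-hPD-1 cells. Compound added 2 h at 37° C beforehand, in DMEM with 10% fetal calf serum.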

T1 sequence (Q15116 25-288): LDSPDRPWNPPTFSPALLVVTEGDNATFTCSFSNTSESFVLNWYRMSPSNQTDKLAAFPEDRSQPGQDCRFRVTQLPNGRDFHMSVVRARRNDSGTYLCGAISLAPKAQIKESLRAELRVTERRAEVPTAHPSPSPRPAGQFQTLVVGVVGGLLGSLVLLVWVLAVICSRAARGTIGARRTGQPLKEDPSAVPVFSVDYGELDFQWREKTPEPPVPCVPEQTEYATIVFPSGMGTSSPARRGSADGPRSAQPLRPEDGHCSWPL

| Structure (SMILES) | IC50 [nM] |
| --- | --- |
| Cc1cccc(C[C@@H]2NC(=O)[C@H](CC(=O)O)NC(=O)[C@H](Cc3ccc(OCC(=O)O)cc3)NC(=O)[C@H](CN)NC(=O)CSC[C@@H](C(=O)NCc3ccc(CC(=O)N[C@@H](CCN)C(=O)NCCCCCCCCCCC(=O)O)cc3)NC(=O)[C@H](CN)NC(=O)[C@H](C(C)C)NC(=O)[C@H](CC3CCCCC3)NC(=O)[C@H](CCN)NC(=O)[C@@H](CC(C)C)NC(=O)[C@H](CCCN)NC(=O)[C@H](C(C)C)NC(=O)[C@H](Cc3ccc(-c4ccccc4)cc3)NC(=O)[C@H](C(C)C)NC2=O)c1 [Compound 2003] ({CH2CO}-[Dap]Y(Carboxymethyl)D[Phe(3-Me)]V[Bip]V[Orn][dL][Dab][Cha]V[Dap]C[X6][Dab][Aun]-OH; thioether N-14) | 136 |
| Cc1cccc(C[C@@H]2NC(=O)[C@H](CC(=O)O)NC(=O)[C@H](Cc3ccc(OCC(=O)O)cc3)NC(=O)[C@H](CN)NC(=O)CSC[C@@H](C(=O)N[C@@H](CCCN)C(=O)NCc3ccc(CC(=O)NCCCCCCCCCCC(=O)O)cc3)NC(=O)[C@H](CN)NC(=O)[C@H](C(C)C)NC(=O)[C@H](CC3CCCCC3)NC(=O)[C@H](CCN)NC(=O)[C@@H](CC(C)C)NC(=O)[C@H](CCCN)NC(=O)[C@H](C(C)C)NC(=O)[C@H](Cc3ccc(-c4ccccc4)cc3)NC(=O)[C@H](C(C)C)NC2=O)c1 [Compound 2004] ({CH2CO}-[Dap]Y(Carboxymethyl)D[Phe(3-Me)]V[Bip]V[Orn][dL][Dab][Cha]V[Dap]C[Orn][X6][Aun]-OH; thioether N-14) | 18.6 |
| CC[C@H](C)[C@@H]1NC(=O)[C@H](Cc2ccc(-c3ccccc3)cc2)NC(=O)[C@H](C(C)C)NC(=O)[C@H](Cc2c[nH]c3ccccc23)NC(=O)[C@H](CC(=O)O)NC(=O)[C@H](Cc2ccc(OCC(=O)O)cc2)NC(=O)[C@H](Cc2ccncc2)NC(=O)CSC[C@@H](C(=O)N[C@@H](CCCN)C(=O)NCCOCCOCC(=O)NC2(C(=O)NCCCCCCCCCCC(=O)O)CC2)NC(=O)[C@H](CN)NC(=O)[C@H](C(C)C)NC(=O)[C@H](CC(C)C)NC(=O)[C@H](CCN)NC(=O)[C@@H](CC(C)C)NC(=O)[C@H](CCCN)NC1=O [Compound 2006] ({CH2CO}-[4Pal]Y(Carboxymethyl)DWV[Bip]I[Orn][dL][Dab]LV[Dap]C[Orn][AEEA][Ac3c][Aun]-OH; thioether N-14) | 7.7 |
| Cc1cccc(C[C@@H]2NC(=O)[C@H](CC(=O)O)NC(=O)[C@H](Cc3ccc(OCC(=O)O)cc3)NC(=O)[C@H](CN)NC(=O)CSC[C@@H](C(=O)N[C@@H](CCCCN)C(=O)NCCCCCCCCCCC(=O)O)NC(=O)[C@@H](CO)NC(=O)[C@H](C(C)C)NC(=O)[C@H](CC(C)C)NC(=O)[C@H](CCN)NC(=O)[C@@H](CC(C)C)NC(=O)[C@H](CCCN)NC(=O)[C@H](C(C)C)NC(=O)[C@H](Cc3ccc(-c4ccccc4)cc3)NC(=O)[C@H](C(C)C)NC2=O)c1 [Compound 2009] ({CH2CO}-[Dap]Y(Carboxymethyl)D[Phe(3-Me)]V[Bip]V[Orn][dL][Dab]LV[dS]CK[Aun]-OH; thioether N-14) | 17.2 |
| Cc1cccc(C[C@@H]2NC(=O)[C@H](CC(=O)O)NC(=O)[C@H](Cc3ccc(OCC(=O)O)cc3)NC(=O)[C@H](CN)NC(=O)CSC[C@@H](C(=O)NCc3ccc(CC(=O)N[C@@H](CCCCN)C(=O)NCCCCCCCCCCC(=O)O)cc3)NC(=O)[C@H](CN)NC(=O)[C@H](C(C)C)NC(=O)[C@H](CC3CCCCC3)NC(=O)[C@H](CCN)NC(=O)[C@@H](CC(C)C)NC(=O)[C@H](CCCN)NC(=O)[C@H](C(C)C)NC(=O)[C@H](Cc3ccc(-c4ccccc4)cc3)NC(=O)[C@H](C(C)C)NC2=O)c1 [Compound 2011] ({CH2CO}-[Dap]Y(Carboxymethyl)D[Phe(3-Me)]V[Bip]V[Orn][dL][Dab][Cha]V[Dap]C[X6]K[Aun]-OH; thioether N-14) | 24.8 |
| Cc1cccc(C[C@@H]2NC(=O)[C@H](CC(=O)O)NC(=O)[C@H](Cc3ccc(OCC(=O)O)cc3)NC(=O)[C@H](CN)NC(=O)CSC[C@@H](C(=O)N[C@@H](CCCCN)C(=O)NCc3ccc(CC(=O)NCCCCCCCCCCC(=O)O)cc3)NC(=O)[C@H](CN)NC(=O)[C@H](C(C)C)NC(=O)[C@H](CC3CCCCC3)NC(=O)[C@H](CCN)NC(=O)[C@@H](CC(C)C)NC(=O)[C@H](CCCN)NC(=O)[C@H](C(C)C)NC(=O)[C@H](Cc3ccc(-c4ccccc4)cc3)NC(=O)[C@H](C(C)C)NC2=O)c1 [Compound 2012] ({CH2CO}-[Dap]Y(Carboxymethyl)D[Phe(3-Me)]V[Bip]V[Orn][dL][Dab][Cha]V[Dap]CK[X6][Aun]-OH; thioether N-14) | 46 |
| CC[C@H](C)[C@@H]1NC(=O)[C@H](Cc2ccc(-c3ccccc3)cc2)NC(=O)[C@H](C(C)C)NC(=O)[C@H](Cc2c[nH]c3ccccc23)NC(=O)[C@H](CC(=O)O)NC(=O)[C@H](Cc2ccc(OCC(=O)O)cc2)NC(=O)[C@H](Cc2ccncc2)NC(=O)CSC[C@@H](C(=O)N[C@@H](CCCN)C(=O)NCCOCCOCC(=O)NCc2ccc(CC(=O)NCCCCCCCCCCC(=O)O)cc2)NC(=O)[C@H](CN)NC(=O)[C@H](C(C)C)NC(=O)[C@H](CC(C)C)NC(=O)[C@H](CCN)NC(=O)[C@@H](CC(C)C)NC(=O)[C@H](CCCN)NC1=O [Compound 2014] ({CH2CO}-[4Pal]Y(Carboxymethyl)DWV[Bip]I[Orn][dL][Dab]LV[Dap]C[Orn][AEEA][X6][Aun]-OH; thioether N-14) | 33 |

Further molecules by falling IC50, results first:

| IC50 [nM] | Structure (SMILES) |
| --- | --- |
| 15.3 | Cc1cccc(C[C@@H]2NC(=O)[C@H](CC(=O)O)NC(=O)[C@H](Cc3ccc(OCC(=O)O)cc3)NC(=O)[C@H](CN)NC(=O)CSC[C@@H](C(=O)NC3(C(=O)NCCCCCCCCCCC(=O)O)CC3)NC(=O)[C@H]([C@@H](C)O)NC(=O)[C@H](C(C)C)NC(=O)[C@H](CC3CCCCC3)NC(=O)[C@H](CCN)NC(=O)[C@@H](CC(C)C)NC(=O)[C@H](CCCN)NC(=O)[C@H](CCCNC(N)=O)NC(=O)[C@H](Cc3ccc(-c4ccccc4)cc3)NC(=O)[C@H](C(C)C)NC2=O)c1 [Compound 2010] ({CH2CO}-[Dap]Y(Carboxymethyl)D[Phe(3-Me)]V[Bip][Cit][Orn][dL][Dab][Cha]VTC[Ac3c][Aun]-OH; thioether N-14) |
| 13.7 | Cc1cccc(C[C@@H]2NC(=O)[C@H](CC(=O)O)NC(=O)[C@H](Cc3ccc(OCC(=O)O)cc3)NC(=O)[C@H](CN)NC(=O)CSC[C@@H](C(=O)N[C@@H](C)C(=O)N[C@@H](CCCN)C(=O)NCC(=O)NCCCCCCCCCCC(=O)O)NC(=O)[C@H]([C@@H](C)O)NC(=O)[C@H](C(C)C)NC(=O)[C@H](CC3CCCCC3)NC(=O)[C@H](CCN)NC(=O)[C@@H](CC(C)C)NC(=O)[C@H](CCCN)NC(=O)[C@H](CCCNC(=N)N)NC(=O)[C@H](Cc3ccc(-c4ccccc4)cc3)NC(=O)[C@H](C(C)C)NC2=O)c1 [Compound 2007] ({CH2CO}-[Dap]Y(Carboxymethyl)D[Phe(3-Me)]V[Bip]R[Orn][dL][Dab][Cha]VTCA[Orn]G[Aun]-OH; thioether N-14) |
| 11.6 | CC[C@H](C)[C@@H]1NC(=O)[C@H](Cc2ccc(-c3ccccc3)cc2)NC(=O)[C@H](C(C)C)NC(=O)[C@H](Cc2c[nH]c3ccccc23)NC(=O)[C@H](CC(=O)O)NC(=O)[C@H](Cc2ccc(OCC(=O)O)cc2)NC(=O)[C@H](Cc2ccncc2)NC(=O)CSC[C@@H](C(=O)N[C@@H](CCCN)C(=O)NCCOCCOCC(=O)NC2(C(=O)NCCCCCCCCCCC(=O)O)CC2)NC(=O)[C@H]([C@@H](C)O)NC(=O)[C@H](C(C)C)NC(=O)[C@H](CC(C)C)NC(=O)[C@H](CCN)NC(=O)[C@@H](CC(C)C)NC(=O)[C@H](CCCN)NC1=O [Compound 2005] ({CH2CO}-[4Pal]Y(Carboxymethyl)DWV[Bip]I[Orn][dL][Dab]LVTC[Orn][AEEA][Ac3c][Aun]-OH; thioether N-14) |
